The values that follow come from patent publication US8809347B2, “Bicyclic aryl and bicyclic heteroaryl substituted triazoles useful as AXL inhibitors” (Rigel Pharmaceuticals, Inc., priority 2006, dated 2014).

For the test, the target named is T1, Axl (Homo sapiens, UniProt P30530).
T1 construct: Cells: Hela cells; endogenous in cells; host or cells: HeLa cells
T1 sequence (P30530 26-894): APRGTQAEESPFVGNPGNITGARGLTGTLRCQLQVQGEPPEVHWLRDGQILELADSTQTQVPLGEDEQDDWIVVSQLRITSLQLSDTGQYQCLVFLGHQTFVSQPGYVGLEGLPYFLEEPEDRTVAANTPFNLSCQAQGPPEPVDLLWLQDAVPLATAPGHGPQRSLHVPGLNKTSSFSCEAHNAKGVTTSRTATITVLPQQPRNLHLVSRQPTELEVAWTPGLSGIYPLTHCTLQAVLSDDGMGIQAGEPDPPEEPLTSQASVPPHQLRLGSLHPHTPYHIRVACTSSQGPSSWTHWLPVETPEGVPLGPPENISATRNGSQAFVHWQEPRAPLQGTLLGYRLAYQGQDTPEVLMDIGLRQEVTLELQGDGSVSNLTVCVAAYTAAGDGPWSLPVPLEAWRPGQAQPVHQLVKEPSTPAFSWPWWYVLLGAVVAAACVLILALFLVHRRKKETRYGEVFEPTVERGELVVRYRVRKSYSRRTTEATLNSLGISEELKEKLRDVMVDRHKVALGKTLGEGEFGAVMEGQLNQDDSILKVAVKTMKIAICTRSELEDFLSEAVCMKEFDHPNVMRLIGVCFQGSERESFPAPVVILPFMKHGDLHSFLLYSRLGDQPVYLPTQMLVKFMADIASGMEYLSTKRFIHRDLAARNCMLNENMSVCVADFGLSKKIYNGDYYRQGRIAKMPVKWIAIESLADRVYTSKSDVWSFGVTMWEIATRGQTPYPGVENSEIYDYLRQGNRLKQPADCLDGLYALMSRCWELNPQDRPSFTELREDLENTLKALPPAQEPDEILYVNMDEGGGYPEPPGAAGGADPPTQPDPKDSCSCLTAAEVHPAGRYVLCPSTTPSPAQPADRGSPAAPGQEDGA
As to the kind of experiment: Phospho-Akt in-cell Western assay (inhibition of Axl activity). The note with it: Hela cells; 1 hr pre-treatment; stimulation by Axl-antibody cross-linking; phospho-Akt chemiluminescence normalized to relative cell number. It counts as cell-based. As for the experimental part:
The compounds of the invention were tested in the following assay for their ability to inhibit Axl activity.
Phospho-Akt in-Cell Western Assay
• Cell culture plate: 96 well assay plate (Corning 3610), white, clear bottom, tissue-culture treated. • Cells: Hela cells. • Starvation medium: For Axl stimulation: 0.5% FCS (fetal calf serum) in DMEM, plus Axl/Fc (extracellular domain of AXL fused to immunoglobulin Fc region) (R&D, 154-AL) 500 ng/mL. • For EGF (epidermal growth factor) stimulation: 0.5% FCS in DMEM (Dulbecco's modified Eagles medium). • Poly-L-Lysine 0.01% solution (the working solution): […], dilute In PBS (phosphate buffered saline). • Axl antibody cross-linking: • 1st: Mouse anti-Axl (R&D, MAB154). • 2nd: Biotin-SP-conjugated AffiniPure goat anti-mouse IgG (H+ L) (Jackson ImmunoResearch #115-065-003). • Fixing buffer: 4% formaldehyde in PBS. • Wash buffer: 0.1% TritonX-100 in PBS. • Quenching buffer: 3% H2O2, 0.1% Azide in wash buffer, Azide and hydrogen peroxide (H2O2) are added fresh. • Blocking buffer: 5% BSA in TBST (tris buffered saline plus 0.1% Tween 20). • Primary antibody: Rabbit anti-human Phospho-Akt antibody (Cell Signaling 9271): 1×250 diluted in blocking buffer. • Secondary antibody: HRP (horse radish peroxidase)-conjugated Goat anti-Rabbit secondary, stock solution: Jackson ImmunoResearch (Goat anti-Rabbit HRP, #111-035-144) 1:1 diluted in glycerol, store at −20° C. The working solution: 1×2000 dilution of stock in blocking buffer. • Chemiluminescent working solution (Pierce, 37030): SuperSignal ELISA (enzyme linked immunosorbant assay) Pico Chemiluminescent substrate. • Crystal Violet solution: Stock: 2.5% Crystal violet in methanol, filtered and kept at ambient temperature. The working solution: dilute the stock 1:20 with PBS immediately before use. • 10% SDS: working solution: 5% SDS (sodium dodecylsulfate), diluted in PBS Methods: Day 1:
A 96 well TC (tissue culture treated) plate was coated with 10 μg/mL poly-L-Lysine at 37° C. for 30 min, washed twice with PBS, and air-dried for 5 minutes before cells were added. Hela cells were seeded at 10,000 cells/well and the cells were starved in 100 μL starvation medium containing Axl/Fc for 24 hrs.
The cells were pre-treated with test compounds by adding 100 μL of 2× test compound to the starvation medium on the cells. The cells were incubated at 37° C. for 1 hr before stimulation.
The cells were stimulated by Axl-antibody cross-linking as follows: A 5× 1st/2nd Axl antibody mixture was made (37.5 μg/mL 1st/100 μg/mL 2nd) in starvation medium and nutated at 4° C. with thorough mixing for 1-2 hours for clustering. The resulting mix was warmed to 37° C. 50 μL of 5× Axl 1st/2nd of antibody cluster was added to the cells and the cells were incubated at 37° C. for 5 min.
After 5 minutes stimulation, the plate was flicked to remove medium and the plate was tapped onto paper towels. Formaldehyde (4.0% in PBS, 100 μL) was added to fix the cells and the cells were incubated at ambient temperature for 20 min without shaking.
The cells were washed with a plate washer buffer to remove the formaldehyde solution. The plate was flicked to removed excess wash buffer and tapped onto paper towels. Quenching buffer (100 μL) was added to each well and the cells were incubated at ambient temperature for 20 minutes without shaking.
The cells were washed with a plate washer buffer to remove the quenching buffer. Blocking buffer (100 μL) was added and the cells were incubated at ambient temperature for at least an hour with gentle shaking.
The cells were washed with a plate washer buffer and diluted primary antibody (50 μL) was added to each well (blocking buffer was added to the negative control wells instead). The plates were incubated overnight at 4° C. with gentle shaking.
The wash buffer was removed, diluted secondary antibody (100 μL) was added, and the cells were incubated at ambient temperature for 1 hour with gentle shaking. […]

Structures are written as SMILES.

A word on the IC50: it is the concentration that inhibits the measured activity by half. As to `Cc1csc2c(-n3nc(Nc4cnc5c(c4)CCC(N4CCCC4)CCC5)nc3N)nc(Cl)nc12` (stereo not shown) [Compound 37, 1-(2-chloro-7-methylthieno[3,2-d]pyrimidin-4-yl)-N^3-(7-(pyrrolidin-1-yl)-5,6,7,8,9,10-hexahydrocycloocta[b]pyridin-3-yl)-1H-1,2,4-triazole-3,5-diamine], the IC50 was less than 1000 nM. For `Cc1csc2c(-n3nc(Nc4ccc5c(c4)CCCN(C4CC6CCC4C6)CC5)nc3N)nc(Cl)nc12` (stereo not shown) [Compound 38, N^3-(3-(bicyclo[2.2.1]heptan-2-yl)-1,2,3,4,5,6-hexahydrobenzo[d]azocin-8-yl)-1-(2-chloro-7-methylthieno[3,2-d]pyrimidin-4-yl)-1H-1,2,4-triazole-3,5-diamine] the value was less than 1000 nM; for `COc1cc2ncnc(-n3nc(Nc4ccc5c(c4)CCCN(C4CC6CCC4C6)CC5)nc3N)c2cc1OC` (stereo not shown) [Compound 39, N^3-(3-(bicyclo[2.2.1]heptan-2-yl)-1,2,3,4,5,6-hexahydrobenzo[d]azocin-8-yl)-1-(6,7-dimethoxyquinazolin-4-yl)-1H-1,2,4-triazole-3,5-diamine], less than 1000 nM; for `Cc1csc2c(-n3nc(Nc4cnc5c(c4)CCC(N4CCCC4)CCC5)nc3N)ncnc12` (stereo not shown) [Compound 40, 1-(7-methylthieno[3,2-d]pyrimidin-4-yl)-N^3-(7-(pyrrolidin-1-yl)-5,6,7,8,9,10-hexahydrocycloocta[b]pyridin-3-yl)-1H-1,2,4-triazole-3,5-diamine], less than 1000 nM. With `Cc1csc2c(-n3nc(Nc4ccc5c(c4)CCCN(C4CCCC4)CC5)nc3N)ncnc12` [Compound 41, N^3-(3-cyclopentyl-1,2,3,4,5,6-hexahydrobenzo[d]azocin-8-yl)-1-(7-methylthieno[3,2-d]pyrimidin-4-yl)-1H-1,2,4-triazole-3,5-diamine] the figure was less than 1000 nM.

In the case of `Cc1csc2c(-n3nc(Nc4ccc5c(c4)CCCN(C4CC6CCC4C6)CC5)nc3N)ncnc12` (stereo not shown) [Compound 42, N^3-(3-(bicyclo[2.2.1]heptan-2-yl)-1,2,3,4,5,6-hexahydrobenzo[d]azocin-8-yl)-1-(7-methylthieno[3,2-d]pyrimidin-4-yl)-1H-1,2,4-triazole-3,5-diamine], the IC50 is less than 1000 nM. With `Cc1csc2c(-n3nc(Nc4cnc5c(c4)CCC(NC4CCCCC4)CCC5)nc3N)ncnc12` (stereo not shown) [Compound 43, N^3-(7-(cyclohexylamino)-5,6,7,8,9,10-hexahydrocycloocta[b]pyridin-3-yl)-1-(7-methylthieno[3,2-d]pyrimidin-4-yl)-1H-1,2,4-triazole-3,5-diamine] the figure was less than 1000 nM; with `Cc1csc2c(-n3nc(Nc4cnc5c(c4)CCC(N4CCN(C)CC4)CCC5)nc3N)ncnc12` (stereo not shown) [Compound 44, N^3-(7-(4-methylpiperazin-1-yl)-5,6,7,8,9,10-hexahydrocycloocta[b]pyridin-3-yl)-1-(7-methylthieno[3,2-d]pyrimidin-4-yl)-1H-1,2,4-triazole-3,5-diamine], less than 1000 nM; with `Nc1nc(Nc2ccc(N3CCC(N4CCCC4)CC3)c(F)c2)nn1-c1cc(-c2ccccc2)c2c(n1)CCCCCC2` [Compound 45, N^3-(3-fluoro-4-(4-(pyrrolidin-1-yl)piperidin-1-yl)phenyl)-1-(4-phenyl-5,6,7,8,9,10-hexahydrocycloocta[b]-pyridin-2-yl)-1H-1,2,4-triazole-3,5-diamine], 1000 to 10000 nM. Turning to `CN1CCN(c2ccc(Nc3nc(N)n(-c4cc(-c5ccccc5)c5c(n4)CCCCCC5)n3)cc2)CC1` [Compound 46, N^3-(4-(4-methylpiperazin-1-yl)phenyl)-1-(4-phenyl-5,6,7,8,9,10-Hexahydrocycloocta[b]-pyridin-2-yl)-1H-1,2,4-triazole-3,5-diamine], the IC50 is 1000 to 10000 nM. In the case of `Nc1nc(Nc2ccc(OCCN3CCCC3)cc2)nn1-c1cc(-c2ccccc2)c2c(n1)CCCCCC2` [Compound 47, N^3-(4-(2-(pyrrolidin-1-yl)ethoxy)phenyl)-1-(4-phenyl-5,6,7,8,9,10-hexahydrocycloocta[b]-pyridin-2-yl)-1H-1,2,4-triazole-3,5-diamine], the IC50 lay in the range of 1000 to 10000 nM. With `Cc1csc2c(-n3nc(Nc4ccc5c(c4)C(=O)NCCCC5)nc3N)nc(Cl)nc12` [Compound 48, N^3-(1-oxo-1,2,3,4,5,6-hexahydrobenzo[c]azocin-9-yl)-1-(2-chloro-7-methylthieno[3,2-d]pyrimidin-4-yl)-1H-1,2,4-triazole-3,5-diamine] the figure was less than 1000 nM; with `Cc1csc2c(-n3nc(Nc4ccc5c(c4)C(=O)NCCCC5)nc3N)ncnc12` [Compound 49, N^3-(1-oxo-1,2,3,4,5,6-hexahydrobenzo[c]azocin-9-yl)-1-(7-methylthieno[3,2-d]pyrimidin-4-yl)-1H-1,2,4-triazole-3,5-diamine], 1000 to 10000 nM. Consider `COc1cc2ncnc(-n3nc(Nc4ccc5c(c4)C(=O)NCCCC5)nc3N)c2cc1OC` [Compound 50, N^3-(1-oxo-1,2,3,4,5,6-hexahydrobenzo[c]azocin-9-yl)-1-(6,7-dimethoxyquinazolin-4-yl)-1H-1,2,4-triazole-3,5-diamine], for which the concentration for half-maximal inhibition (IC50) was less than 1000 nM. For `Nc1nc(Nc2ccc(N3CCC(N4CCCCCC4)CC3)nc2)nn1-c1ncnc2c1CCCCCC2` [Compound 51, N^3-(6-(4-(azepan-1-yl)piperidin-1-yl)pyridin-3-yl)-1-(5,6,7,8,9,10-hexahydrocycloocta[d]pyrimidin-4-yl)-1H-1,2,4-triazole-3,5-diamine] the value was less than 1000 nM; for `Nc1nc(Nc2ccc(N3CCC(CN4CCCC4)CC3)nc2)nn1-c1ncnc2c1CCCCCC2` [Compound 52, N^3-(6-(4-((pyrrolidin-1-yl)methyl)piperidin-1-yl)pyridin-3-yl)-1-(5,6,7,8,9,10-hexahydrocycloocta[d]pyrimidin-4-yl)-1H-1,2,4-triazole-3,5-diamine], less than 1000 nM.
